Results from patent US10912763B2 (priority 2010, dated 2021).

Assay: Pharmacological activity of the decomposition product

Fc1ccc2[nH]c3c(c2c1)CCOC31CC=C(c2ccccc2)CC1 (stereo not shown) [6′-fluoro-4-phenyl-4′,9′-dihydro-3′H-spiro[cyclohex-3-ene-1,1′-pyrano[3,4-b]indole]]
Pharmacological activity: pharmacologically inactive
